Assay results published in PMC11543753, “The Ortholog Receptor Or67d in Drosophila Bipectinata is able to Detect Two Different Pheromones” (Journal of Chemical Ecology, 2024).

Assays:
[1] = tested on: T1, DbipOr67d (Drosophila bipectinata); assay: single sensillum recording, spike rate of at1 neurons; type: cell-based; settings: agonist; odor 10^-3 (v/v) in dichloromethane, 0.5 s puff; D. melanogaster at1 neurons expressing DbipOr67d; also tested in wild-type D. bipectinata at1
T1 construct: with Odorant receptor coreceptor (Drosophila melanogaster)

D. melanogaster Or67d = target: T2, D. melanogaster Or67d (Drosophila melanogaster, UniProt Q9VT92); assay: as above; type: cell-based; settings: agonist; odor 10^-3 (v/v) in dichloromethane, 0.5 s puff; native at1 neurons of wild-type CS flies
T2 construct: native receptor in at1 trichoid sensillum neurons of wild-type flies; with Odorant receptor coreceptor
T2 sequence (Q9VT92 1-391): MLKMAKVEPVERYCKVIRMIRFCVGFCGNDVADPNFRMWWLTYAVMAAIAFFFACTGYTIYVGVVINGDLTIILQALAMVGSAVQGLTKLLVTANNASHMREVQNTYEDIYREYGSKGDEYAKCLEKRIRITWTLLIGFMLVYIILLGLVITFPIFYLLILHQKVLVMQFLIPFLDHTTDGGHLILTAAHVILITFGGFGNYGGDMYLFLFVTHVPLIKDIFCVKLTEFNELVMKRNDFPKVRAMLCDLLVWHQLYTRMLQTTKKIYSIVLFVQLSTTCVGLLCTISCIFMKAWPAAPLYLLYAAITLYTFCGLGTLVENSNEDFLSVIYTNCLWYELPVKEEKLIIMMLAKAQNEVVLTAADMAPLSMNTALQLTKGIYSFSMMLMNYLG
T2 sequence (Q9VNB5 1-486 partner): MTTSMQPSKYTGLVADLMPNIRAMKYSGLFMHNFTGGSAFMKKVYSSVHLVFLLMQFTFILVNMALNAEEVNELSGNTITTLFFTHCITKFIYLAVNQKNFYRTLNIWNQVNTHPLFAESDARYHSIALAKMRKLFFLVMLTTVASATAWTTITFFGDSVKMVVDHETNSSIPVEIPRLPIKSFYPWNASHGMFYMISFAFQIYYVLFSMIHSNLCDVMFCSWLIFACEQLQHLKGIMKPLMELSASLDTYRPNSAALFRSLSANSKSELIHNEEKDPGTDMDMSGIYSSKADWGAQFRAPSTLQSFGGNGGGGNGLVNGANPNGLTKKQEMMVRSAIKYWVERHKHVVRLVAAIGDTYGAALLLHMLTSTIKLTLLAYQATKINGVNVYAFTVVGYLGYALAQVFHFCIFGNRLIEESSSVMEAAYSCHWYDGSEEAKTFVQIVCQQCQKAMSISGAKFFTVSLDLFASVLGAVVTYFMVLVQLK

SMILES	single sensillum recording, spike rate of at1 neurons [1]	single sensillum recording, spike rate of at1 neurons (D. melanogaster Or67d)
CCCCCCCC/C=C\CCCCCCCCCCOC(C)=O [Z11-20:Ac, (Z)-11-eicosen-1-yl acetate]	Drosophila melanogaster OSNs ectopically expressing D.bipOr67d respond to cVA and Z11-20:Ac.	
CCCCCC/C=C\CCCCCCCCCCOC(C)=O [cVA, (Z)-11-octadecen-1-yl acetate]	Drosophila melanogaster OSNs ectopically expressing D.bipOr67d respond to cVA and Z11-20:Ac.	D. melanogaster CS flies exhibited significant responses only to cVA (Fig. 1c)
